Laboratory results published in patent publication US20130184273A1, “BICYCLIC PYRIMIDINES” (Bayer Intellectual Property GmbH, priority 2010, published 2013).

Legend:
[1] = target: T1, His-tagged human recombinant kinase full-length Akt1 (Homo sapiens, UniProt P31749); experiment: Akt1 kinase assay (TR-FRET); format: biochemical; details: 10 μM ATP, 60 min at 22° C., read-out: Akt1, median IC50
T1 construct: His-tagged human recombinant kinase full-length Akt1; His; purchased Invitrogen PV 3599; host or cells: insect cells
Source text: Akt1 inhibitory activity of compounds of the present invention was quantified employing the Akt1 TR-FRET assay as described in the following paragraphs.
(§1) His-tagged human recombinant kinase full-length Akt1 expressed in insect cells was purchased form Invitrogen (part number PV 3599). As substrate for the kinase reaction the biotinylated peptide biotin-Ahx-KKLNRTLSFAEPG (C-terminus in amide form) was used which can be purchased e.g. from the company Biosynthan GmbH (Berlin-Buch, Germany).
(§2) For the assay 50 nl of a 100 fold concentrated solution of the test compound in DMSO was pipetted into a black low volume 384well microtiter plate (Greiner Bio-One, Frickenhausen, Germany), 2 μl of a solution of Akt1 in assay buffer [50 mM TRIS/HCl pH 7.5, 5 mM MgCl2, 1 mM dithiothreitol, 0.02% (v/v) Triton X-100 (Sigma)] were added and the mixture was incubated for 15 min at 22° C. to allow pre-binding of the test compounds to the enzyme before the start of the kinase reaction. Then the kinase reaction was started by the addition of 3 μl of a solution of adenosine-tri-phosphate (ATP, 16.7 μM=>final conc. in the 5 μl assay volume is 10 μM) and substrate (1.67 μM=>final conc. in the 5 μl assay volume is 1 μM) in assay buffer and the resulting mixture was incubated for a reaction time of 60 min at 22° C. The concentration of Akt1 in the assay was adjusted depending of the activity of the enzyme lot and was chosen appropriate to have the assay in the linear range, typical enzyme concentrations were in the range of about 0.05 ng/μl (final conc. in the 5 μl assay volume).
The reaction was stopped by the addition of 5 μl of a solution of HTRF detection reagents (200 nM streptavidine-XL665 [Cisbio] and 1.5 nM anti-phosho-Serine antibody [Millipore, cat. #35-001] and 0.75 nM LANCE Eu-W 1024 labeled anti-mouse IgG antibody [Perkin Elmer]) in an aqueous EDTA-solution (100 mM EDTA, 0.1% (w/v) bovine serum albumin in 50 mM HEPES/NaOH pH 7.5). The resulting mixture was incubated 1 h at 22° C. to allow the binding of the biotinylated phosphorylated peptide to the streptavidine-XL665 and the antibodies. Subsequently the amount of phosphorylated substrate was evaluated by measurement of the resonance energy transfer from the anti-mouse-IgG-Eu-Chelate to the streptavidine-XL665. Therefore, the fluorescence emissions at 620 nm and 665 nm after excitation at 350 nm was measured in a HTRF reader, e.g. a Rubystar (BMG Labtechnologies, Offenburg, Germany) or a Viewlux (Perkin-Elmer). The ratio of the emissions at 665 nm and at […] was taken as the measure for the amount of phosphorylated substrate. The data were normalised (enzyme reaction without inhibitor=0% inhibition, all other assay components but no enzyme=100% inhibition).

[2] = target: T2, His-tagged human recombinant kinase full-length Akt2 (Homo sapiens, UniProt P31751); experiment: Akt2 kinase assay (TR-FRET); format: biochemical; details: 10 μM ATP, 60 min at 22° C., read-out: Akt2, median IC50
T2 construct: His-tagged human recombinant kinase full-length Akt2; His; purchased Invitrogen PV 3975; host or cells: insect cells
Source text: Akt2 inhibitory activity of compounds of the present invention was quantified employing the Akt2 TR-FRET assay as described in the following paragraphs.
as §1, with “Akt2” for “Akt1”, “cells and activated by PDK1” for “cells”, “3975).” for “3599).”
as §2, with “Akt2” for “Akt1”, “0.2” for “0.05”
The reaction was stopped by the addition of 5 μl of a solution of HTRF detection reagents (200 nM streptavidine-XL665 [Cisbio] and 1.5 nM anti-phosho-Serine antibody [Millipore, cat. #35-001] and 0.75 nM LANCE Eu-W 1024 labeled anti-mouse IgG antibody [Perkin Elmer]) in an aqueous EDTA-solution (100 mM EDTA, 0.1% (w/v) bovine serum albumin in 50 mM HEPES/NaOH pH 7.5).
The resulting mixture was incubated 1 h at 22° C. to allow the binding of the biotinylated phosphorylated peptide to the streptavidine-XL665 and the antibodies.
Subsequently the amount of phosphorylated substrate was evaluated by measurement of the resonance energy transfer from the anti-mouse-IgG-Eu-Chelate to the streptavidine-XL665. Therefore, the fluorescence emissions at 620 nm and 665 nm after excitation at 350 nm was measured in a TR-FRET reader, e.g. a Rubystar (BMG Labtechnologies, Offenburg, Germany) or a Viewlux (Perkin-Elmer). The ratio of the emissions at 665 nm and at […] was taken as the measure for the amount of phosphorylated substrate. The data were normalised (enzyme reaction without inhibitor=0% inhibition, all other assay components but no enzyme=100% inhibition).

T1 sequence (P31749 whole entry): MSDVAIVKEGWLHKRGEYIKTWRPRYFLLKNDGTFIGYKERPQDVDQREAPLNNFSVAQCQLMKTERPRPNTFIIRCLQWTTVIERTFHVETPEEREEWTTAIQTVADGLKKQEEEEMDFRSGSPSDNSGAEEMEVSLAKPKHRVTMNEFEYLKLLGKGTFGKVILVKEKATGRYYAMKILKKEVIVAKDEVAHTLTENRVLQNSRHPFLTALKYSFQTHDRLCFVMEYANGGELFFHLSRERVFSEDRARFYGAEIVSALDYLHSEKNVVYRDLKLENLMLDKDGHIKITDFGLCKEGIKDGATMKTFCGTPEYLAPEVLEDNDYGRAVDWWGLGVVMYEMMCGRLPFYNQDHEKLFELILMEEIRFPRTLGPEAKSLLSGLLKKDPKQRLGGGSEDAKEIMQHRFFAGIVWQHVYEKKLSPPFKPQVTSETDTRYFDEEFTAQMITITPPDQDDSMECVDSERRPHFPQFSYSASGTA
T2 sequence (P31751 whole entry): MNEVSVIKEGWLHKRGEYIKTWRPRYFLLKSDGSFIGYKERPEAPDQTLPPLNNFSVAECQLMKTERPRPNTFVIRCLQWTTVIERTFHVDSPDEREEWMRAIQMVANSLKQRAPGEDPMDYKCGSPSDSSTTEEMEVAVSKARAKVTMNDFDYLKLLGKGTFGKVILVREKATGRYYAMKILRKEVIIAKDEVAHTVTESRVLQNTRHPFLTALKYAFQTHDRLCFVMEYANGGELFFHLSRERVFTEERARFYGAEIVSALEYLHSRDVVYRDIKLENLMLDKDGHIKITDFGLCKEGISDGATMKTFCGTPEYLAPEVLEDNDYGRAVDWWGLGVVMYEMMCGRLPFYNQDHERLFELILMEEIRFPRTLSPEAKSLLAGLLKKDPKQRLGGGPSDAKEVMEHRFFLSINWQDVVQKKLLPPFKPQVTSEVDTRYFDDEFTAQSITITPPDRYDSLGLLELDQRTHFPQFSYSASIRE

SMILES	IC50 [1] [nM]	IC50 [2] [nM]
Cc1nc2nc(-c3ccc(C4(N)CCCC4)cc3)c(-c3ccccc3)cn2n1 [Example 1-1, 1-[4-(2-methyl-6-phenyl-[1,2,4]triazolo[1,5-a]pyrimidin-5-yl)-phenyl]-cyclopentylamine]	2570	3260
Cc1nc2nc(-c3ccc(C4(N)CC4)cc3)c(-c3ccccc3)cn2n1 [Example 1-2, 1-[4-(2-methyl-6-phenyl-[1,2,4]triazolo[1,5-a]pyrimidin-5-yl)-phenyl]-cyclopropylamine]	3010	2220
Cc1nc2nc(-c3ccc(C4(N)CCC4)cc3)c(-c3ccccc3)c(C)n2n1 [Example 1-3, 1-[4-(2,7-dimethyl-6-phenyl-[1,2,4]triazolo[1,5-a]pyrimidin-5-yl)-phenyl]-cyclobutylamine]	526	1020
NC1(c2ccc(-c3nc4nccn4cc3-c3ccccc3)cc2)CCC1 [Example 2-0, 1-[4-(6-Phenyl-imidazo[1,2-a]pyrimidin-7-yl)-phenyl]-cyclobutylamine]	2220	1640
NC1(c2ccc(-c3nc4nccn4c(NC4CC4)c3-c3ccccc3)cc2)CCC1 [Example 2-2, {7-[4-(1-Amino-cyclobutyl)-phenyl]-6-phenyl-imidazo[1,2-a]pyrimidin-5-yl)-cyclopropylamine]	2050	1580
NC1(c2ccc(-c3nc4nccn4c(N4CCOCC4)c3-c3ccccc3)cc2)CCC1 [Example 2-3, 1-[4-(5-Morpholino-4-yl-6-phenyl-imidazo[1,2-a]pyrimidin-7-yl)phenyl]-cyclobutylamine]	13100	7470
COC[C@H](C)Nc1c(-c2ccccc2)c(-c2ccc(C3(N)CCC3)cc2)nc2nccn12 [Example 2-4, {7-[4-(1-Amino-cyclobutyl)-phenyl]-6-phenyl-imidazo[1,2-a]pyrimidin-5-yl}-((S)-2-methoxy-1-methyl-ethyl)-amine]	10600	1270
COC[C@H](C)Nc1c(-c2ccccc2)c(-c2ccc(C3(N)CCC3)cc2)nc2nc(C)cn12 [Example 2-6, {7-[4-(1-Amino-cyclobutyl)-phenyl]-2-methyl-6-phenyl-imidazo[1,2-a]pyrimidin-5-yl}-((S)-2-methoxy-1-methyl-ethyl)-amine]	13000	2860

Other lines, results leading:

IC50 [1] [nM]	IC50 [2] [nM]	SMILES
2380	2320	NC1(c2ccc(-c3nc4nc(-c5ccccn5)nn4c(NC4CC4)c3-c3ccccc3)cc2)CCC1 [Example 3-1, {5-[4-(1-Aminocyclobutyl)-phenyl]-6-phenyl-2-pyridine-2-yl-[1,2,4]triazolo[1,5-a]pyrimidin-7-yl}-cyclopropylamine]
≥ 20000	6640	NC1(c2ccc(-c3nc4nc(-c5ccccn5)nn4c(N4CCOCC4)c3-c3ccccc3)cc2)CCC1 [Example 3-2, 1-[4-(7-Morpholine-4-yl-6-phenyl-2-pyridine-2-yl-[1,2,4]triazolo[1,5-a]pyrimidin-5-yl)-phenyl]-cyclobutylamine]
≥ 20000	1120	CCOC(=O)C1(Nc2c(-c3ccccc3)c(-c3ccc(C4(N)CCC4)cc3)nc3nc(C)nn23)CCC1 [Example 3-3, 1-{5-[4-(1-Aminocyclobutyl)-phenyl]-2-methyl-6-phenyl-[1,2,4]triazolo[1,5-a]pyrimidin-7-ylamino}-cyclobutanecarboxylic acid ethyl ester]
18200	9350	COCCCNc1c(-c2ccccc2)c(-c2ccc(C3(N)CCC3)cc2)nc2nc(C)nn12 [Example 3-4, {5-[4-(1-Amino-cyclobutyl)-phenyl]-2-methyl-6-phenyl-[1,2,4]triazolo[1,5-a]pyrimidin-7-yl}-(3-methoxy-propyl)-amine]
18800	3560	Cc1nc2nc(-c3ccc(C4(N)CCC4)cc3)c(-c3ccccc3)c(NCCc3ccc(F)cc3)n2n1 [Example 3-5, {5-[4-(1-Amino-cyclobutyl)-phenyl]-2-methyl-6-phenyl-[1,2,4]triazolo[1,5-a]pyrimidin-7-yl}-[2-(4-fluoro-phenyl)-ethyl]-amine]
